For 28 compounds, TGI and GI50 results are on record in PubChem BioAssay (NCI).

Where “and” joins values, the source holds several entries; their conditions need not be identical. Equal values may be shown once.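 How tested: cells in 96-well plates exposed to compound for 48 hours at five concentrations. GI50 is the concentration that inhibits growth by half. Definition used: TGI = concentration required for complete inhibition of growth.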 Where only a bound is given, the exact number is not on record here.

One assay deals with HCT-15 colon. In words: inhibition of tumour cell growth, NCI panel, 48 h.
Compound `CC(C)c1ccc2nc3ccc(C(=O)NCCN(C)C)cn3c(=O)c2c1` displayed a TGI of 28.5 µM.
For `O=[N+]([O-])c1ccc(N=Nc2c(O)[nH]c3ccc([N+](=O)[O-])cc23)cc1`, the TGI was more than 100 µM.
As to `N=C(N)SCc1cn2ccccc2n1`, the TGI was more than 100 µM.
For `Clc1ccc([O][In]([O]c2ccc(Cl)cn2)[O]c2ccc(Cl)cn2)nc1`, the GI50 was more than 100 µM and the TGI is more than 100 µM.
`Fc1cccc(Cl)c1C1SCc2nc3ccccc3n21` (stereo not given) displayed a TGI of more than 100 µM.
Same read-out and setting: to `COc1cc2nncc(Sc3cnnc4ccccc34)c2cc1OC` belongs 72.2 µM.
Still for that read-out and setting: to `COC(=O)C1=CCON(c2ccccc2)C1c1ccccc1` (stereo not given) belongs more than 100 µM; to `CC(=O)N(CCN)CCN`, more than 100 µM.
In the case of `Cc1cc(O)c2c(c1)C(O)(c1ccc3c(c1O)C(=O)c1c(O)cc(C)cc1C3(O)C1OC(CO)C(O)C(O)C1O)c1cccc(O)c1C2=O` (stereo not given), the TGI came to 26.1 µM.
With `COC(=O)c1nc(NN)[nH]c(=O)c1CCCCCc1c(C(=O)OC)[nH]c(NN)cc1=O`, the TGI was more than 100 µM.
With `CC1(C)C(=O)C(O)=CC2C1=CCC1C2(C)C(=O)CC2(C)C(C(C)(O)C(=O)CC(O)C(C)(C)O)C(O)CC12C` (stereo not given), the TGI was more than 88.7 µM.
`CCc1ccccc1NC(=O)C(=O)C(C(=O)c1ccc(OC)cc1)c1ccc(OC)cc1` (stereo not given) returned a TGI of more than 100 µM.
Consider `COc1ccc(C(=O)N2c3ccccc3Sc3ccccc32)c(F)c1`, for which the GI50 was 0.419 µM and the TGI is more than 100 µM.
Consider `COc1cc(C2c3cc4c(cc3[C@@H](Nc3ccc(N(C)C)cc3)[C@H]3COC(=O)C23)OCO4)cc(OC)c1O` (stereo not given in full), for which the GI50 is 1.82 µM; the TGI was 8.16 µM and 11.3 µM.
As for `O=c1nc(-c2ccccc2)c2c3c(cccn13)CCC2`, the TGI is more than 100 µM.
In turn, `COc1ccc([C@H]2CC(=O)N3CCCC3N2)cc1` (stereo not given in full) came in with a TGI of more than 100 µM.
With `O=C(c1ccccc1)c1c(CC(O)c2cccnc2)n(C(=O)c2ccccc2)c2ccccc12` (stereo not given), the TGI was 60.3 µM.
Regarding `C=C(C)C1CC2C(C)=C(OC(C)=O)C1n1c(=O)c3cc4ccccc4cc3c(=O)n12` (stereo not given), the TGI was more than 100 µM.
With `O=C(CCc1nc(=S)[nH][nH]1)NC12CC3CC(CC(C3)C1)C2`, the TGI is more than 100 µM.
The compound `CSc1nc2c(c(O)c(C)c(=O)n2C2OC(COC(C)=O)C(OC(C)=O)C(OC(C)=O)C2OC(C)=O)c(=O)n1C` (stereo not given) had a TGI of more than 100 µM.
Same read-out and setting: the result for `Cc1nc2c(n1CC(C)(C)C)C(=O)c1ccccc1C2=O` reads more than 100 µM; that for `COc1ccc(C(C2=C(C)C(=O)c3ccccc3C2=O)c2ccc(C(C)C)cc(=O)c2O)cc1` (stereo not given), 32.2 µM; that for `CC(C)N(C(=O)C12C3C4C1C1C2C3C41C(O)C(C)(C)C)C(C)C` (stereo not given), more than 50 µM.

Another assay concerns LOX IMVI melanoma. In words: inhibition of tumour cell growth, NCI panel, 48 h.
`COc1ccc(C2C(Cl)C(=O)N2n2cnc3ccccc3c2=O)cc1OC` (stereo not given): the TGI was more than 100 µM.
Compound `Nc1nc2c(ncn2Cc2ccccc2CCO)c(=O)[nH]1` showed a TGI of more than 100 µM.
As for `CCC1(Br)C(=O)NC(=O)N(C2CC(O)C(CO)O2)C1N=[N+]=[N-]` (stereo not given), the TGI is more than 100 µM.
For `O=[N+]([O-])c1ccc(N=Nc2c(O)[nH]c3ccc([N+](=O)[O-])cc23)cc1`, the TGI was more than 100 µM.
Still for that read-out and setting: to `CC12CC3(C)CC(C)(C1)CC(N=[N+]=[N-])(C2)C3` belongs more than 100 µM; to `N=C(N)SCc1cn2ccccc2n1`, more than 100 µM.
Consider `Clc1ccc([O][In]([O]c2ccc(Cl)cn2)[O]c2ccc(Cl)cn2)nc1`, for which the GI50 is more than 100 µM and the TGI is more than 100 µM.
`Fc1cccc(Cl)c1C1SCc2nc3ccccc3n21` (stereo not given) displayed a TGI of 38 µM.
As for `COc1cc2nncc(Sc3cnnc4ccccc34)c2cc1OC`, the TGI amounted to 63.8 µM.
Compound `COC(=O)C1=CCON(c2ccccc2)C1c1ccccc1` (stereo not given) yielded a TGI of more than 100 µM.
In turn, `CC(=O)N(CCN)CCN` displayed a TGI of more than 10 µM.
For `Cc1cc(O)c2c(c1)C(O)(c1ccc3c(c1O)C(=O)c1c(O)cc(C)cc1C3(O)C1OC(CO)C(O)C(O)C1O)c1cccc(O)c1C2=O` (stereo not given), the TGI turned out to be 28 µM.
Still for that read-out and setting: to `COC(=O)c1nc(NN)[nH]c(=O)c1CCCCCc1c(C(=O)OC)[nH]c(NN)cc1=O` belongs more than 100 µM; to `CC1(C)C(=O)C(O)=CC2C1=CCC1C2(C)C(=O)CC2(C)C(C(C)(O)C(=O)CC(O)C(C)(C)O)C(O)CC12C` (stereo not given), 6.95 µM; to `CCc1ccccc1NC(=O)C(=O)C(C(=O)c1ccc(OC)cc1)c1ccc(OC)cc1` (stereo not given), more than 100 µM.
As to `COc1ccc(C(=O)N2c3ccccc3Sc3ccccc32)c(F)c1`, the GI50 is 0.726 µM and the TGI is more than 100 µM.
Compound `COc1cc(C2c3cc4c(cc3[C@@H](Nc3ccc(N(C)C)cc3)[C@H]3COC(=O)C23)OCO4)cc(OC)c1O` (stereo not given in full) registered a TGI of 17.6 µM.
In turn, `O=c1nc(-c2ccccc2)c2c3c(cccn13)CCC2` had a TGI of more than 100 µM.
As for `C=C(C)C1CC2C(C)=C(OC(C)=O)C1n1c(=O)c3cc4ccccc4cc3c(=O)n12` (stereo not given), the TGI was more than 100 µM.
Compound `O=C(CCc1nc(=S)[nH][nH]1)NC12CC3CC(CC(C3)C1)C2` came in with a TGI of more than 100 µM.
As to `CSc1nc2c(c(O)c(C)c(=O)n2C2OC(COC(C)=O)C(OC(C)=O)C(OC(C)=O)C2OC(C)=O)c(=O)n1C` (stereo not given), the TGI was more than 100 µM.
For `Cc1nc2c(n1CC(C)(C)C)C(=O)c1ccccc1C2=O`, the TGI was more than 100 µM.
`COc1ccc(C(C2=C(C)C(=O)c3ccccc3C2=O)c2ccc(C(C)C)cc(=O)c2O)cc1` (stereo not given) yielded a TGI of 17.6 µM.

Another assay concerns MALME-3M melanoma. In words: inhibition of tumour cell growth, NCI panel, 48 h.
With `O=C1c2ccccc2N2OC3(N4CCCC4)CCCC3C12c1ccccc1` (stereo not given), the TGI was more than 100 µM.
With `COc1ccc(C2C(Cl)C(=O)N2n2cnc3ccccc3c2=O)cc1OC` (stereo not given), the TGI is more than 100 µM.
Same read-out and setting: to `Nc1nc2c(ncn2Cc2ccccc2CCO)c(=O)[nH]1` belongs more than 100 µM; to `CCC1(Br)C(=O)NC(=O)N(C2CC(O)C(CO)O2)C1N=[N+]=[N-]` (stereo not given), more than 100 µM.
Still for that read-out and setting: to `CC(C)c1ccc2nc3ccc(C(=O)NCCN(C)C)cn3c(=O)c2c1` belongs 23.1 µM; to `CC12CC3(C)CC(C)(C1)CC(N=[N+]=[N-])(C2)C3`, more than 100 µM; to `N=C(N)SCc1cn2ccccc2n1`, more than 100 µM.
On to `Clc1ccc([O][In]([O]c2ccc(Cl)cn2)[O]c2ccc(Cl)cn2)nc1`, for which the GI50 was more than 100 µM and the TGI was more than 100 µM.
Consider `Fc1cccc(Cl)c1C1SCc2nc3ccccc3n21` (stereo not given), for which the TGI was determined as 45.8 µM.
With `COc1cc2nncc(Sc3cnnc4ccccc34)c2cc1OC`, the TGI turned out to be 32.4 µM.
For the compound `COC(=O)C1=CCON(c2ccccc2)C1c1ccccc1` (stereo not given), the TGI was more than 100 µM.
`Cc1cc(O)c2c(c1)C(O)(c1ccc3c(c1O)C(=O)c1c(O)cc(C)cc1C3(O)C1OC(CO)C(O)C(O)C1O)c1cccc(O)c1C2=O` (stereo not given): the TGI was 25.5 µM.
Same read-out and setting: to `COC(=O)c1nc(NN)[nH]c(=O)c1CCCCCc1c(C(=O)OC)[nH]c(NN)cc1=O` belongs more than 100 µM.
